Laboratory results reported in ChEMBL document CHEMBL1201862, “PubChem BioAssay data set” (2004).
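How tested: cells in 96-well plates exposed to compound for 48 hours at five concentrations. Here, GI50 denotes the concentration required for 50% inhibition of growth.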 The source made the active and inactive calls. Cut-off read from the data, not from the text of the source: active = GI50 up to about 1.1 µM and inactive = higher.

Columns and labels:
Assay in all cases: NCI-60 cell line screen, 48 h
ACHN = tested on: ACHN
CAKI-1 = tested on: CAKI-1
COLO 205 = tested on: COLO 205
DU-145 = tested on: DU-145
HCT-15 = tested on: HCT-15
HL-60 = tested on: HL-60
KM12 = tested on: KM12
MDA-MB-435 = tested on: MDA-MB-435
MOLT-4 = tested on: MOLT-4
NCI-H522 = tested on: NCI-H522
OVCAR-3 = tested on: OVCAR-3
OVCAR-5 = tested on: OVCAR-5
RXF 393 = tested on: RXF 393
SF-268 = tested on: SF-268
SF-539 = tested on: SF-539
SK-OV-3 = tested on: SK-OV-3
SR = tested on: SR
TK-10 = tested on: TK-10
UACC-257 = tested on: UACC-257
LOX IMVI = tested on: LOX IMVI

Measured: GI50

Cc1ccc(N2CCC3(CC2)OCCO3)cc1
> 100 µM: HCT-15
inactive: ACHN > 100 µM | CAKI-1 > 100 µM | COLO 205 > 100 µM | DU-145 > 100 µM | HL-60 > 100 µM | KM12 > 100 µM | MDA-MB-435 > 100 µM | MOLT-4 > 100 µM | NCI-H522 > 100 µM | OVCAR-3 > 100 µM | OVCAR-5 > 100 µM | RXF 393 > 100 µM | SF-268 > 100 µM | SF-539 > 100 µM | SK-OV-3 > 100 µM | SR > 100 µM | TK-10 > 100 µM | UACC-257 > 100 µM

O=c1[nH]c(=O)n(COCc2ccccc2)c2ccc([N+](=O)[O-])cc12
inactive: ACHN 25.6 µM | CAKI-1 > 100 µM | COLO 205 > 100 µM | DU-145 > 100 µM | HL-60 > 100 µM | KM12 > 100 µM | LOX IMVI > 100 µM | MDA-MB-435 > 100 µM | MOLT-4 > 100 µM | OVCAR-3 > 100 µM | OVCAR-5 > 100 µM | RXF 393 > 100 µM | SF-539 > 100 µM | SK-OV-3 > 100 µM | SR > 100 µM | TK-10 > 100 µM | UACC-257 > 100 µM
> 100 µM: HCT-15

CC(=O)OCC1OC(SC2OC(COC(C)=O)C(OC(C)=O)C(OC(C)=O)C2OC(C)=O)C(OC(C)=O)C(OC(C)=O)C1OC(C)=O (centres undefined)
> 100 µM: HCT-15
inactive: ACHN 52.5 µM | CAKI-1 > 100 µM | COLO 205 > 100 µM | DU-145 > 100 µM | HL-60 > 100 µM | KM12 > 100 µM | LOX IMVI > 100 µM | MDA-MB-435 > 100 µM | MOLT-4 > 100 µM | OVCAR-3 > 100 µM | OVCAR-5 > 100 µM | RXF 393 > 100 µM | SF-268 > 100 µM | SF-539 > 100 µM | SK-OV-3 > 100 µM | SR > 100 µM | TK-10 > 100 µM | UACC-257 > 100 µM

CC(C)(C)CNCCCNc1ccc(Cl)cc1
active: HL-60 < 0.01 µM
93.1 µM: HCT-15
inactive: ACHN > 100 µM | COLO 205 21 µM | DU-145 > 100 µM | KM12 36 µM | LOX IMVI 25.3 µM | MDA-MB-435 30.1 µM | MOLT-4 3.33 µM | NCI-H522 24.1 µM | OVCAR-5 51.8 µM | RXF 393 15.7 µM | SF-268 65.6 µM | SF-539 92.9 µM | SK-OV-3 > 100 µM | SR 5.41 µM | TK-10 19.7 µM | UACC-257 22.8 µM

Oc1ccc(-c2nc3cc(F)ccc3s2)cc1
23.6 µM: HCT-15
inactive: ACHN 20.3 µM | CAKI-1 23.7 µM | COLO 205 18.6 µM | DU-145 21.8 µM | HL-60 21.7 µM | KM12 20.5 µM | LOX IMVI 17.9 µM | MDA-MB-435 20 µM | MOLT-4 10.4 µM | NCI-H522 15.3 µM | OVCAR-3 19.2 µM | OVCAR-5 23.1 µM | RXF 393 27.4 µM | SF-268 26.7 µM | SK-OV-3 25.7 µM | SR 2.38 µM | TK-10 34.1 µM | UACC-257 27.4 µM

N/N=C1/CCCc2nonc21
> 100 µM: HCT-15
inactive: ACHN > 100 µM | CAKI-1 > 100 µM | COLO 205 > 100 µM | DU-145 > 100 µM | HL-60 > 100 µM | KM12 > 100 µM | LOX IMVI > 100 µM | MDA-MB-435 > 100 µM | MOLT-4 > 100 µM | OVCAR-3 > 100 µM | OVCAR-5 > 100 µM | RXF 393 > 100 µM | SF-268 > 100 µM | SF-539 > 100 µM | SK-OV-3 > 100 µM | SR > 100 µM | TK-10 > 100 µM | UACC-257 > 100 µM

Fc1ccccc1C1SCC2=Nc3ccccc3CN21 (centres undefined)
> 100 µM: HCT-15
inactive: ACHN > 100 µM | CAKI-1 > 100 µM | COLO 205 > 100 µM | DU-145 > 100 µM | HL-60 > 100 µM | KM12 > 100 µM | LOX IMVI > 100 µM | MDA-MB-435 > 100 µM | MOLT-4 > 100 µM | OVCAR-3 97.1 µM | OVCAR-5 92.9 µM | RXF 393 > 100 µM | SF-268 54.1 µM | SF-539 94.8 µM | SK-OV-3 > 100 µM | SR 79.8 µM | TK-10 > 100 µM | UACC-257 > 100 µM

CCOC(=O)Nc1cc2c(c(N)n1)N=C(c1ccccc1)[C@H](C)N2 [MIVOBULIN ISETHIONATE]
0.0324 µM: HCT-15
active: ACHN < 0.0001 µM | CAKI-1 < 0.0001 µM | COLO 205 < 0.0001 µM | DU-145 < 0.0001 µM | HL-60 < 0.0001 µM | KM12 < 0.0001 µM | LOX IMVI < 0.0001 µM | MDA-MB-435 < 0.0001 µM | MOLT-4 < 0.0001 µM | NCI-H522 < 0.0001 µM | OVCAR-3 0.000468 µM | RXF 393 < 0.0001 µM | SF-268 < 0.0001 µM | SR < 0.0001 µM | TK-10 0.00273 µM | UACC-257 0.00215 µM
inactive: OVCAR-5 23 µM | SK-OV-3 17.4 µM

O=C(CN1CCOCC1)NC1=Nc2ncccc2C(=O)NN1
> 10 µM: HCT-15
inactive: ACHN > 10 µM | DU-145 > 10 µM | HL-60 > 10 µM | KM12 > 10 µM | LOX IMVI > 10 µM | MDA-MB-435 > 10 µM | MOLT-4 > 10 µM | OVCAR-3 > 10 µM | OVCAR-5 > 10 µM | RXF 393 > 10 µM | SF-268 > 10 µM | SF-539 > 10 µM | SK-OV-3 > 10 µM | SR > 10 µM | TK-10 > 10 µM | UACC-257 > 10 µM

c1ccc(-c2csc3c2-n2cccc2C3N2CCCC2)cc1 (centres undefined)
inactive: ACHN > 100 µM | CAKI-1 72.3 µM | COLO 205 > 10 µM | DU-145 95.3 µM | HL-60 23.5 µM | KM12 30.7 µM | LOX IMVI 40.7 µM | MDA-MB-435 33.7 µM | MOLT-4 42.3 µM | NCI-H522 13.3 µM | OVCAR-3 6.9 µM | OVCAR-5 20.2 µM | RXF 393 > 100 µM | SF-268 13.9 µM | SF-539 36.4 µM | SR 57.7 µM | TK-10 27 µM | UACC-257 7.36 µM
93.8 µM: HCT-15

Cc1nc2ccccc2c(=O)n1NC(=S)Nc1ccc(Cl)cc1[N+](=O)[O-]
> 100 µM: HCT-15
inactive: ACHN > 100 µM | CAKI-1 > 100 µM | COLO 205 > 100 µM | DU-145 > 100 µM | HL-60 > 100 µM | KM12 > 100 µM | MDA-MB-435 > 100 µM | MOLT-4 > 100 µM | NCI-H522 > 100 µM | OVCAR-3 > 100 µM | RXF 393 > 100 µM | SF-268 > 100 µM | SF-539 > 100 µM | SK-OV-3 > 100 µM | SR > 100 µM | TK-10 > 100 µM | UACC-257 > 100 µM
